# From patent US20090274714A1, “TUMOUR-ASSOCIATED PEPTIDES BINDING TO HUMAN LEUKOCYTE ANTIGEN (HLA) CLASS I OR II MOLECULES AND RELATED ANTI-CANCER VACCINE” (Immatics Boitechnologies GmhH, priority 2005, published 2009)
# Like-named read-outs stand apart in the source and are kept apart here. Ends that are not written are not given here.
# B1: IMA-K67-001 (peptide from KIAA0367) (peptide)
# peptide: ALFDGDPHL
# notes: HLA class I TUMAP
# B2: IMA-CCN-001 (peptide from Cyclin D1) (peptide)
# peptide: LLGATCMFV
# notes: HLA class I TUMAP; not identified by elution from tumour tissue; also called rCCN-001; CNN-001
# B3: IMA-MET-001 (peptide from c-met proto-oncogene) (peptide)
# peptide: YVDPVITSI
# notes: HLA class I TUMAP; also called c-Met peptide
# Tests used:
# T-cells [1] = assay: Summary of in vitro immunogenicity (killer assay, cytokine release/staining, tetramer detection); assay type: cell-based, human; conditions: reference: unpublished
# Description: As in the latter case, several tumour cell lines endogenously expressing the antigen are also recognized.
# IMA contains 10 HLA class I-binding peptides. To test the peptides regarding their in vitro immunogenicity, CD8-positive cytotoxic T-cells were generated from autologous peripheral blood mononuclear cells (PBMC) from healthy donors using single peptides contained in IMA and the activity of these cytotoxic T-cells was tested with chromium release assays and detection of T-cells with HLA tetramers in flow cytometry. Detailed data is shown for one exemplary peptide (IMA-MET-001) for both methods, the data for the other peptides is summarized in Table 8 above.
# In the first step, cytotoxic T-cells are generated (primed) in vitro by repeated stimulation of peripheral blood mononuclear cells (PBMC) from healthy HLA-A*02 positive donors with the specific peptide to be tested. The priming can be done either using autologous dendritic cells generated from blood monocytes of the donor or using HLA tetramer-loaded beads.
# A. Cytotoxic killing of target: In the second step, cytoxicity of such primed cytotoxic T-cells (CTLs) are tested by labelling target cells with radioactive chromium and incubating target cells with generated CTLs. The amount of radioactive chromium released into the supernatant can be correlated directly to proportion of killed target cells.
# B. Detection of T-cells with HLA tetramers: Alternatively, in the second step primed CTLs with specificity for a given peptide are detected using HLA tetramers. Tetramers consist of four peptide-loaded HLA-A*02 molecules coupled to each other. These constructs allow specific labelling of the cognate T-cell receptor that recognizes the HLA-peptide-complex in the tetramer and by labelling of the tetramer with a fluorochrome followed by analysis in flow cytometry (FACS).
# [2] = Physico-chemical characteristics: solubility; conditions: solvent giving clear and colourless solution at 1 mg/ml
# [3] = tested on: HLA-A*02 positive cell lines HCT 116, A498, MZ 1257, MCF-7, MeI 1479 and U266 that express c-Met; conditions: HLA-A2+/c-Met+ cell lines; SK-OV-3, Croft, K 562 not recognized; cited from earlier work
# U 266 and A 498 = conditions: inhibitor to target ratio 20:1; cited from earlier work
# T-cells [4] = conditions: reference: published literature; cited from earlier work
# [5] = tested on: peptide loaded T2 cells and autologous DC; conditions: cited from earlier work
# renal cell carcinoma = conditions: monotherapy, advanced RCC; cited from earlier work
# T-cells [6] = conditions: peptide not vaccinated; not present prior to vaccination; 2 RCC patients; cited from earlier work
# [7] = University of Tübingen trial, cited from earlier work
# CD4-positive T-cells = assay: Intracellular IFNγ staining of in vitro primed CD4-positive T-cells; assay type: cell-based, human
# Description: First, CD4-positive T-cells were generated (primed) in vitro by repeated stimulation of peripheral blood mononuclear cells (PBMC) from healthy donors with the specific peptide to be tested in the presence of IL-12. The priming was performed using autologous dendritic cells generated from blood monocytes of the donors. In the second step, the activity of primed CD4-positive T-cells specific for the given peptide were tested by measurement of IFNγ production by intracellular IFNγ staining using a fluorescently labelled antibody. The analysis was done by flow cytometry (FACS).
# Human DCs were prepared out of PBMCs from freshly drawn blood from healthy donors. PBMCs were isolated using a Ficoll density gradient (Lymphocyte Separation Medium, PAA Laboratories GmbH, Pasching, Austria). The obtained cells were washed, resuspended in X-Vivo 15 medium supplemented with 50 U/ml penicillin, 50 μg/ml streptomycin and 2 mM L-Glutamine (BioWhittaker, Verviers, Belgium) and plated at a density of 7×10^6 cells/ml. […]
# Cryopreserved PBMCs were thawed, washed two times in X-Vivo 15 medium, resuspended at 10^7 cells/ml in T-cell medium and cultured overnight to reduce unspecific IFNγ production (Provenzano 2002). […] Cells were analyzed using a Cytofix/Cytoperm Plus kit (Becton Dickinson) and CD4-FITC− (Immunotools), IFNγ-PE- and CD8-PerCP clone SKI-antibodies (Becton Dickinson). After staining, cells were analyzed on a three-color FACSCalibur (Becton Dickinson).
# To generate antigen-specific CD4-positive T-cells and to test the peptide on promiscuous binding, PBMCs of 4 healthy donors with different HLA-DR alleles (FIG. 7) were stimulated using peptide-pulsed autologous DCs. As a read-out system for the generation of antigen-specific CD4-positive T-cells IFNγ production was assessed by flow cytometry. T-cells were analyzed after the third and the fourth stimulation by intracellular IFNγ staining plus CD4-FITC and CD8-PerCP staining to determine the percentage of IFNγ-producing cells in specific T-cell subpopulations. […]
# [8] = biological target: T1, biotinylated recombinant HLA-A*0201 molecules lacking the transmembrane domain (human, biotinylated at the carboxy terminus of the heavy chain); assay: tetrameric recombinant HLA-A*0201 multimer loaded with the peptide, flow cytometry reagent
# T1 construct: tetramerised on streptavidin-PE or streptavidin-APC at a 4:1 molar ratio, or coupled to streptavidin beads; also called HLA-A*0201 tetramer; HLA tetramers
# [9] = biological target: T1, biotinylated recombinant HLA-A*0201 …; assay: recombinant HLA-A*0201 refolded with the peptide, used on beads and as tetramer
molecule,measurement,setting,value
LAALPHSCL-OH [IMA-RGS-001],In vitro immunogenicity (assay by which shown),T-cells [1],Tetramer detection
same,Solubility (Clear and colourless solution 1 mg/ml),[2],water
YVDPVITSI-OH [IMA-MET-001],lysis of tumour cells endogenously expressing c-Met by induced CTL,[3],able to efficiently lyse malignant cells expressing both HLA-A2 and c-Met
same,effect of cold T2-cells pulsed with cognate peptide on lysis of tumour cells,U 266 and A 498,reduced the lysis of tumour cells
same,In vitro immunogenicity (assay by which shown),T-cells [4],"Killer assay, cytokine staining, tetramer"
same,cytotoxicity of induced CTL against peptide-loaded targets,[5],antigen-specific killing
IFNα,"response rate, initially reported",renal cell carcinoma,25-30%
same,true response rate suggested by additional trials,renal cell carcinoma,about 10%
LLGATCMFV-OH [IMA-CCN-001],In vitro immunogenicity (assay by which shown),T-cells [4],Killer assay (allogeneic T cells)
same,Solubility (Clear and colourless solution 1 mg/ml),[2],50% acetic acid
ALFDGDPHL-OH [IMA-K67-001],In vitro immunogenicity (assay by which shown),T-cells [1],Tetramer detection
same,Solubility (Clear and colourless solution 1 mg/ml),[2],20% acetic acid
SVASTITGV-OH [IMA-ADF-001],In vitro immunogenicity (assay by which shown),T-cells [4],Killer assay
same,Solubility (Clear and colourless solution 1 mg/ml),[2],10% acetic acid
same,specific T-cells after vaccination with non-related MUC peptides (epitope spreading),T-cells [6],detected
STAPPVHNV-OH [IMA-MUC-001],autoimmune effects,[7]; administered with autologous dendritic cells,no autoimmune effects
same,tolerability,[7]; loaded on dendritic cells,very well tolerated
same,In vitro immunogenicity (assay by which shown),T-cells [4],"Killer assay, cytokine release"
same,Solubility (Clear and colourless solution 1 mg/ml),[2],10% acetic acid
ALADGVQKV-OH [IMA-APO-001],Solubility (Clear and colourless solution 1 mg/ml),[2],water
SQDDIKGIQKLYGKRS-OH [IMA-MMP-001],healthy donors in whom CD4-positive T-cell responses were elicited,"CD4-positive T-cells; 4 healthy donors with different HLA-DR alleles, positive if more than two fold over negative control",three out of four
same,CD4-positive T-cell reactivity (intracellular IFN gamma),"CD4-positive T-cells; Donor 1, 2 and 3, after the third and the fourth stimulation",showed CD4-positive T-cells reactive
same,CD4-positive T-cell reactivity (intracellular IFN gamma),CD4-positive T-cells; Donor 4,always negative
same,In vitro immunogenicity (assay by which shown),T-cells [1],Cytokine staining
SVFAGVVGV-OH [IMA-GUC-001],Solubility (Clear and colourless solution 1 mg/ml),[2],90% acetic acid
VMAGDIYSV-OH [IMA-ADF-002],In vitro immunogenicity (assay by which shown),T-cells [1],Tetramer detection
same,Solubility (Clear and colourless solution 1 mg/ml),[2],10% acetic acid
B1,binding result,[8],binds
B2,binding result,[8],binds
B3,binding result,[9],binds
